Test results reported in US11274118B2 (priority 2012, dated 2022).
Values after ≈ are worked out from the molar mass of the structure shown.

Assays:
[1] = rat, in vivo, iv, 4 mg/kg
Primary cortical cells = assay: Reduction of neuronal cell death after a glutamate challenge (MTT / LDH release); assay type: cell-based; settings: for inhibition at 5 µM: 24 h, read-out: reduction in cell death at a 5 μM dose; for dose at maximum efficacy: glutamate challenge, primary cortical cells; for Emax: read-out: maximum efficacy, reduction in cell death
physchem [2] = settings: kinetic from dmso stock
[3] = tested on: cerebral edema in rats following bilateral cortical contusion; settings: rat, in vivo, iv, 4 mg/kg
physchem [4] = settings: buffer, pH 7

| Structure (SMILES) | concentrations of circulating drug [1] | inhibition at 5 µM (Primary cortical cells) [%] | dose at maximum efficacy (Primary cortical cells) [µM] | Emax (Primary cortical cells) [%] | solubility at 90 min (physchem [2]; pH 4, aqueous buffer) [µM] | solubility at 90 min (physchem [2]; pH 7, aqueous buffer) [µM] | reduction of brain edema [3] [%] | half-life (physchem [4]) [h] |
| --- | --- | --- | --- | --- | --- | --- | --- | --- |
| CC(=O)[C@H]1CC[C@H]2[C@@H]3CCC4=C/C(=N/O)CC[C@]4(C)[C@H]3CC[C@]12C [Compound 2, 1-((8S,9S,10R,13S,14S,17S,E)-3-(Hydroxyimino)-10,13-dimethyl-2,3,6,7,8,9,10,11,12,13,14,15,16,17-tetradecahydro-1H-cyclopenta[a]phenanthren-17-yl)ethanone] | micromolar concentrations | 21 | 5 | 21 | < 45 | < 45 | 60 | > 240 |
| CO/N=C(\C)[C@H]1CC[C@H]2[C@@H]3CCC4=CC(=O)CC[C@]4(C)[C@H]3CC[C@]12C [Compound 4, (8S,9S,10R,13S,14S,17S)-17-((E)-1-(Methoxyimino)ethyl)-10,13-dimethyl-6,7,8,9,10,11,12,13,14,15,16,17-dodecahydro-1H-cyclopenta[a]phenanthren-3(2H)-one] |  |  |  |  | < 25 | < 25 |  | > 240 |
| C/C(=N\OCCN1CCOCC1)[C@H]1CC[C@H]2[C@@H]3CCC4=CC(=O)CC[C@]4(C)[C@H]3CC[C@]12C [Compound 5, (8S,9S,10R,13S,14S,17S)-10,13-Dimethyl-17-((E)-1-(2-morpholinoethoxyimino)ethyl)-6,7,8,9,10,11,12,13,14,15,16,17-dodecahydro-1H-cyclopenta[a]phenanthren-3 (2H)-one] |  | 26 | 5 | 26 | > 450 | 108 (≈ 47.8 µg/mL) |  | > 240 |
| CC(=O)O/N=C(\C)[C@H]1CC[C@H]2[C@@H]3CCC4=CC(=O)CC[C@]4(C)[C@H]3CC[C@]12C [Compound 6, (8 S,9S,10R,13S,14S,17S)-17-((E)-1-(acetoxyimino)ethyl)-10,13-dimethyl-6,7,8,9,10,11,12,13,14,15,16,17-dodecahydro-1H-cyclopenta[a]phenanthren-3(2H)-one] |  |  |  |  | 180 (≈ 66.9 µg/mL) | 100 (≈ 37.2 µg/mL) |  |  |
| C/C(=N\OC(=O)[C@@H]1CCCN1)[C@H]1CC[C@H]2[C@@H]3CCC4=CC(=O)CC[C@]4(C)[C@H]3CC[C@]12C.Cl [Compound 8, (8S,9S,10R,13S,14S,17S)-10,13-Dimethyl-17-((E)-1-((S)-pyrrolidine-2-carbonyloxyimino)ethyl)-6,7,8,9,10,11,12,13,14,15,16,17-dodecahydro-1H-cyclopenta[a]phenanthren-3(2H)-one Hydrochloride] |  | 21 | 10 | 33 | 395 | 34 |  |  |
| C/C(=N\OC(=O)[C@@H]1CCC[N+]1(C)C)[C@H]1CC[C@H]2[C@@H]3CCC4=CC(=O)CC[C@]4(C)[C@H]3CC[C@]12C.[I-] [Compound 9, (8S,9S,10R,13S,14S,17S)-10,13-Dimethyl-17-((E)-1-((S)-1,1-Dimethylpyrrolidine-2-carbonyloxyimino)ethyl)-6,7,8,9,10,11,12,13,14,15,16,17-dodecahydro-1H-cyclopenta[a]phenanthren-3(2H)-one iodide] |  |  |  |  | 345 | 51 |  | 0.833 |
| C/C(=N\OC(=O)C[N+](C)(C)C)[C@H]1CC[C@H]2[C@@H]3CCC4=CC(=O)CC[C@]4(C)[C@H]3CC[C@]12C.[I-] [Compound 11, (8S,9S,10R,13S,14S,17S)-17-((E)-1-(2-(triimethylamino)acetoxyimino)ethyl)-10,13-dimethyl-6,7,8,9,10,11,12,13,14,15,16,17-dodecahydro-1H-cyclopenta[a]phenanthren-3(2H)-one Iodide] |  |  |  |  | > 540 | 45 |  |  |
| C/C(=N\OC(=O)CN1CCOCC1)[C@H]1CC[C@H]2[C@@H]3CCC4=CC(=O)CC[C@]4(C)[C@H]3CC[C@]12C [Compound 12, (8S,9S,10R,13S,14S,17S)-10,13-Dimethyl-17-((E)-1-(2-morpholinoacetoxyimino)ethyl)-6,7,8,9,10,11,12,13,14,15,16,17-dodecahydro-1H-cyclopenta[a]phenanthren-3(2H)-one] |  |  |  |  | 215 (≈ 98.2 µg/mL) | 215 (≈ 98.2 µg/mL) |  |  |
| C/C(=N\OC(=O)CN1CCN(C)CC1)[C@H]1CC[C@H]2[C@@H]3CCC4=CC(=O)CC[C@]4(C)[C@H]3CC[C@]12C [Compound 13, (8S,9S,10R,13S,14S,17S)-10,13-Dimethyl-17-((E)-1-(2-(4-methylpiperazin-1-yl)acetoxyimino)ethyl)-6,7,8,9,10,11,12,13,14,15,16,17-dodecahydro-1H-cyclopenta[a]phenanthren-3 (2H)-one] |  |  |  |  | 153 (≈ 71.9 µg/mL) | 145 (≈ 68.1 µg/mL) |  | ~72 |
| C/C(=N\OC(=O)c1cccnc1)[C@H]1CC[C@H]2[C@@H]3CCC4=CC(=O)CC[C@]4(C)[C@H]3CC[C@]12C [Compound 14] |  | 20 | 5 | 20 | < 35 | < 35 |  |  |
| C/C(=N\OC(=O)c1ccc[n+](C)c1)[C@H]1CC[C@H]2[C@@H]3CCC4=CC(=O)CC[C@]4(C)[C@H]3CC[C@]12C.[I-] [Compound 15, 3-(((E)-1-((8S,9S,10R,13S,14S,17S)-10,13-Dimethyl-3-oxo-2,3,6,7,8,9,10,11,12,13,14,15,16,17-tetradecahydro-1H-cyclopenta[a]phenanthren-17-yl)ethylideneaminooxy)carbonyl)-1-methylpyridinium iodide] |  | 0 | 1 | 14 | 349 | 212 |  |  |
| C/C(=N\OC(=O)c1ccc(CN)cc1)[C@H]1CC[C@H]2[C@@H]3CCC4=CC(=O)CC[C@]4(C)[C@H]3CC[C@]12C.Cl [Compound 16, (8S,9S,10R,13S,14S,17S)-17-((E)-1-(4-(aminomethyl)benzoyloxyimino)ethyl)-10,13-dimethyl-6,7,8,9,10,11,12,13,14,15,16,17-dodecahydro-1H-cyclopenta[a]phenanthren-3 (2H)-one] |  |  |  |  | < 30 | < 30 |  |  |
| C/C(=N\OC(=O)c1ccc(CN2CCN(C)CC2)cc1)[C@H]1CC[C@H]2[C@@H]3CCC4=CC(=O)CC[C@]4(C)[C@H]3CC[C@]12C [Compound 17, (8S,9S,10R,13S,14S,17S)-10,13-dimethyl-17-((E)-1-(4-((4-methylpiperazin-1-yl)methyl)benzoyloxyimino)ethyl)-6,7,8,9,10,11,12,13,14,15,16,17-dodecahydro-1H-cyclopenta[a]phenanthren-3(2H)-one] |  |  |  |  | < 30 | < 30 |  |  |
| C/C(=N\OC(=O)C1CCNCC1)[C@H]1CC[C@H]2[C@@H]3CCC4=CC(=O)CC[C@]4(C)[C@H]3CC[C@]12C.Cl [Compound 18, (8S,9S,10R,13S,14S,17S)-10,13-Dimethyl-17-((E)-1-(piperidine-4-carbonyloxyimino)ethyl)-6,7,8,9,10,11,12,13,14,15,16,17-dodecahydro-1H-cyclopenta[a]phenanthren-3(2H)-one hydrochloride] |  | 4 | 10 | 24 | 247 | 247 |  |  |
| C/C(=N\OC(=O)C1CCN(C)CC1)[C@H]1CC[C@H]2[C@@H]3CCC4=CC(=O)CC[C@]4(C)[C@H]3CC[C@]12C [Compound 19, (8S,9S,10R,13S,14S,17S)-10,13-Dimethyl-17-((E)-1-(1-methylpiperidine-4-carbonyloxyimino)ethyl)-6,7,8,9,10,11,12,13,14,15,16,17-dodecahydro-1H-cyclopenta[a]phenanthren-3(2H)-one] |  |  |  |  | > 660 | 108 (≈ 49.1 µg/mL) |  |  |
| C/C(=N\OC(=O)C1CC[N+](C)(C)CC1)[C@H]1CC[C@H]2[C@@H]3CCC4=CC(=O)CC[C@]4(C)[C@H]3CC[C@]12C.[I-] [Compound 20, (8S,9S,10R,13S,14S,17S)-10,13-Dimethyl-17-((E)-1-(1,1-dimethylpiperidine-4-carbonyloxyimino)ethyl)-6,7,8,9,10,11,12,13,14,15,16,17-dodecahydro-1H-cyclopenta[a]phenanthren-3(2H)-one iodide] |  | 0 | 5 | 0 | > 500 | > 500 |  |  |
| C/C(=N\OC(=O)[C@@H]1CCCNC1)[C@H]1CC[C@H]2[C@@H]3CCC4=CC(=O)CC[C@]4(C)[C@H]3CC[C@]12C.Cl [Compound 21, (8S,9S,10R,13S,14S,17S)-10,13-dimethyl-17-((E)-1-((R)-piperidine-3-carbonyloxyimino)ethyl)-6,7,8,9,10,11,12,13,14,15,16,17-dodecahydro-1H-cyclopenta[a]phenanthren-3 (2H)-one hydrochloride] |  |  |  |  | > 500 | 428 |  |  |
| C/C(=N\OC(=O)[C@H]1CCCNC1)[C@H]1CC[C@H]2[C@@H]3CCC4=CC(=O)CC[C@]4(C)[C@H]3CC[C@]12C.Cl [Compound 22, (8S,9S,10R,13S,14S,17S)-10,13-Dimethyl-17-((E)-1-((S)-piperidine-3-carbonyloxyimino)ethyl)-6,7,8,9,10,11,12,13,14,15,16,17-dodecahydro-1H-cyclopenta[a]phenanthren-3(2H)-one hydrochloride] |  |  |  |  | 314 | 314 |  |  |
